Experimental data taken from the supplement of paper PMC10307832.

Key:
Assay in all cases: relative viability (nuclei count vs DMSO), 5 days (fraction); higher = more cells survive
Selisistat + Foretinib = compound: C1CC(C2=C(C1)C3=C(N2)C=CC(=C3)Cl)C(=O)N [Selisistat] + COc1cc2c(Oc3ccc(NC(=O)C4(C(=O)Nc5ccc(F)cc5)CC4)cc3F)ccnc2cc1OCCCN1CCOCC1 [Foretinib] (partner 0.25 µM)
Procedure, shortened: (§1)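 Lung cancer cell lines in 1536-well plates were dosed by pin tool the day after seeding, either with one drug alone or with a fixed anchor-drug dose plus five library-drug doses (not always all listed) in √10 steps. After 5 days, cells were fixed and their nuclei stained in one step (final 0.05% Triton X-100, 1% formaldehyde, 1 ug/ml Hoechst), then counted on 4× images. Relative viability is the nuclei count in treated wells divided by that in vehicle wells. Values are medians of duplicate plates.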

Selisistat + Vorinostat = compound: C1CC(C2=C(C1)C3=C(N2)C=CC(=C3)Cl)C(=O)N [Selisistat] + O=C(CCCCCCC(=O)Nc1ccccc1)NO [Vorinostat] (partner 1 µM)
Procedure, shortened: as §1

Serdemetan + Trametinib = compound: c1ccc2c(CCNc3ccc(Nc4ccncc4)cc3)c[nH]c2c1 [Serdemetan] + CC(=O)Nc1cccc(-n2c(=O)n(C3CC3)c(=O)c3c(Nc4ccc(I)cc4F)n(C)c(=O)c(C)c32)c1 [Trametinib] (partner 0.02 µM)
Procedure, shortened: as §1

Serdemetan + Navitoclax = compound: c1ccc2c(CCNc3ccc(Nc4ccncc4)cc3)c[nH]c2c1 [Serdemetan] + CC1(C)CCC(c2ccc(Cl)cc2)=C(CN2CCN(c3ccc(C(=O)NS(=O)(=O)c4ccc(N[C@H](CCN5CCOCC5)CSc5ccccc5)c(S(=O)(=O)C(F)(F)F)c4)cc3)CC2)C1 [Navitoclax] (partner 0.5 µM)
Procedure, shortened: as §1

SK-LU-1 was tested, and the relative viability (Selisistat + Foretinib; first compound 0.4 µM) was 0.883, the relative viability (Selisistat + Foretinib; first compound 1.265 µM) was 0.811 and the relative viability (Selisistat + Foretinib; first compound 4 µM) was 0.865. It also gave a relative viability (Selisistat + Foretinib; first compound 12.65 µM) of 0.813, a relative viability (Selisistat + Foretinib; first compound 40 µM) of 0.825 and a relative viability (Selisistat + Vorinostat; first compound 0.4 µM) of 0.747. The relative viability (Selisistat + Vorinostat; first compound 1.265 µM) was 0.792, the relative viability (Selisistat + Vorinostat; first compound 4 µM) was 1.02 and the relative viability (Selisistat + Vorinostat; first compound 12.65 µM) was 0.821. The relative viability (Selisistat + Vorinostat; first compound 40 µM) was 0.927, the relative viability (Serdemetan + Trametinib; first compound 0.04 µM) was 0.485 and the relative viability (Serdemetan + Trametinib; first compound 0.1265 µM) was 0.464. The relative viability (Serdemetan + Trametinib; first compound 0.4 µM) was 0.444, the relative viability (Serdemetan + Trametinib; first compound 1.265 µM) was 0.332 and the relative viability (Serdemetan + Trametinib; first compound 4 µM) was 0.44. It also gave a relative viability (Serdemetan + Navitoclax; first compound 0.04 µM) of 0.809, a relative viability (Serdemetan + Navitoclax; first compound 0.1265 µM) of 0.971 and a relative viability (Serdemetan + Navitoclax; first compound 0.4 µM) of 0.853. The relative viability (Serdemetan + Navitoclax; first compound 1.265 µM) was 0.705 and the relative viability (Serdemetan + Navitoclax; first compound 4 µM) was 0.639.
For SK-MES-1, the relative viability (Selisistat + Foretinib; first compound 0.4 µM) was 0.908, the relative viability (Selisistat + Foretinib; first compound 1.265 µM) was 0.762 and the relative viability (Selisistat + Foretinib; first compound 4 µM) was 0.624. It also gave a relative viability (Selisistat + Foretinib; first compound 12.65 µM) of 0.879, a relative viability (Selisistat + Foretinib; first compound 40 µM) of 0.883 and a relative viability (Selisistat + Vorinostat; first compound 0.4 µM) of 1.13. The relative viability (Selisistat + Vorinostat; first compound 1.265 µM) was 1.15, the relative viability (Selisistat + Vorinostat; first compound 4 µM) was 1.01 and the relative viability (Selisistat + Vorinostat; first compound 12.65 µM) was 1.1. It also gave a relative viability (Selisistat + Vorinostat; first compound 40 µM) of 1.18, a relative viability (Serdemetan + Trametinib; first compound 0.04 µM) of 0.48 and a relative viability (Serdemetan + Trametinib; first compound 0.1265 µM) of 0.538. For the same cell line, the relative viability (Serdemetan + Trametinib; first compound 0.4 µM) was 0.531, the relative viability (Serdemetan + Trametinib; first compound 1.265 µM) was 0.532 and the relative viability (Serdemetan + Trametinib; first compound 4 µM) was 0.563. It also gave a relative viability (Serdemetan + Navitoclax; first compound 0.04 µM) of 1.21, a relative viability (Serdemetan + Navitoclax; first compound 0.1265 µM) of 1.24 and a relative viability (Serdemetan + Navitoclax; first compound 0.4 µM) of 1.25. The relative viability (Serdemetan + Navitoclax; first compound 1.265 µM) was 0.917 and the relative viability (Serdemetan + Navitoclax; first compound 4 µM) was 0.551.
SW 1573 was tested, and the relative viability (Selisistat + Foretinib; first compound 0.4 µM) was 0.954, the relative viability (Selisistat + Foretinib; first compound 1.265 µM) was 0.806 and the relative viability (Selisistat + Foretinib; first compound 4 µM) was 0.821. For the same cell line, the relative viability (Selisistat + Foretinib; first compound 12.65 µM) was 0.931, the relative viability (Selisistat + Foretinib; first compound 40 µM) was 0.929 and the relative viability (Selisistat + Vorinostat; first compound 0.4 µM) was 0.761. It also gave a relative viability (Selisistat + Vorinostat; first compound 1.265 µM) of 0.94, a relative viability (Selisistat + Vorinostat; first compound 12.65 µM) of 1.19 and a relative viability (Selisistat + Vorinostat; first compound 40 µM) of 1.03. The relative viability (Serdemetan + Trametinib; first compound 0.04 µM) was 0.595, the relative viability (Serdemetan + Trametinib; first compound 0.1265 µM) was 0.6 and the relative viability (Serdemetan + Trametinib; first compound 0.4 µM) was 0.465. It also gave a relative viability (Serdemetan + Trametinib; first compound 1.265 µM) of 0.412, a relative viability (Serdemetan + Trametinib; first compound 4 µM) of 0.256 and a relative viability (Serdemetan + Navitoclax; first compound 0.04 µM) of 0.898. It also gave a relative viability (Serdemetan + Navitoclax; first compound 0.1265 µM) of 0.876, a relative viability (Serdemetan + Navitoclax; first compound 0.4 µM) of 1.02 and a relative viability (Serdemetan + Navitoclax; first compound 1.265 µM) of 0.303. It also gave a relative viability (Serdemetan + Navitoclax; first compound 4 µM) of 0.105.
